Experimental data as given in patent US20250295648A1 (priority 2024, published 2025).
“And” between values parts separate entries of the source, which are not always exact repeats. Equal values may be shown once.

Tested on: L-DOPA-induced dyskinesia in Parkinson's disease patients
Assay: Unified Dyskinesia Rating Scale (UDysRS) after 150% L-DOPA challenge
Details: for UDysRS Parts 3 and 4 average, collected value, median / UDysRS Parts 3 and 4 most severe, collected value, mean / UDysRS Parts 3 and 4 most severe, collected value, median / UDysRS Parts 1, 2, 3, and 4 average, absolute change from baseline, mean / UDysRS Parts 1, 2, 3, and 4 average, absolute change from baseline, median / UDysRS Parts 1, 2, 3, and 4 average, collected value, mean / UDysRS Parts 1, 2, 3, and 4 average, collected value, median / UDysRS Parts 1, 2, 3, and 4 average, relative change from baseline (%), mean / UDysRS Parts 1, 2, 3, and 4 average, relative change from baseline (%), median / UDysRS Parts 1, 2, 3, and 4 most severe, absolute change from baseline, mean / UDysRS Parts 1, 2, 3, and 4 most severe, absolute change from baseline, median / UDysRS Parts 1, 2, 3, and 4 most severe, collected value, mean / UDysRS Parts 1, 2, 3, and 4 most severe, collected value, median / UDysRS Parts 1, 2, 3, and 4 most severe, relative change from baseline (%), mean / UDysRS Parts 1, 2, 3, and 4 most severe, relative change from baseline (%), median / UDysRS Parts 3 and 4 average, absolute change from baseline, mean / UDysRS Parts 3 and 4 average, absolute change from baseline, median / UDysRS Parts 3 and 4 average, collected value, mean / UDysRS Parts 3 and 4 average, relative change from baseline (%), mean / UDysRS Parts 3 and 4 average, relative change from baseline (%), median / UDysRS Parts 3 and 4 most severe, absolute change from baseline, mean / UDysRS Parts 3 and 4 most severe, absolute change from baseline, median / UDysRS Parts 3 and 4 most severe, relative change from baseline (%), mean / UDysRS Parts 3 and 4 most severe, relative change from baseline (%), median: per protocol analysis set, N = 15; for UDysRS Parts 3 + 4, highest score of assessment sessions, mean change from baseline / UDysRS Part 3 sum of items, average of assessment sessions, mean change from baseline / UDysRS Part 3 sum of items, highest score of assessment sessions, mean change from baseline / UDysRS Parts 3 + 4, average of assessment sessions, mean change from baseline / UDysRS Total (Parts 1 to 4), average of assessment sessions, mean change from baseline / UDysRS Total (Parts 1 to 4), highest score of assessment sessions, mean change from baseline: per-protocol set; for UDysRS Part 3 sum of items, average of assessment sessions, mean change from baseline: p < 0.05 vs placebo
[1] = Visit 6 Clinic Efficacy Visit (Day 28)
[2] = Visit 7 Clinic Efficacy Visit (Day 42)
[3] = days 28 and 42, within NLX-112 group
[4] = individual patients A-E co-treated with amantadine
[5] = per-protocol set (n = 15), Baseline
[6] = Δ D 28 (end of up-titration), p < 0.01 vs baseline
[7] = Δ D 42 (end of stable dosing), p < 0.001 vs baseline
[8] = Δ D 42 (end of stable dosing), p < 0.01 vs baseline

Protocol: Patients were rated for dyskinesia at baseline and on days 28 (at end of up-titration period) and 42 (end of stable dosing period). Because the level of dyskinesia experienced by patients can vary over time, they were given 150% (i.e., 1.5×) of their regular L-DOPA dose (up to a maximum of 250 mg) as a challenge 30 min before each dyskinesia assessment to improve comparability between patients and between visits. Patients were filmed 30, 60 and 90 min after dosing with L-DOPA (˜5 min of filming each time). LID was assessed using the Unified Dyskinesia Rating Scale (UDysRS). Changes from baseline are shown for total score (i.e., Parts 1 to 4), for total objective score (i.e., Parts 3+4), and for the sum of Part 3 objective impairment assessment scores. Because objective LID assessment was carried out at 3 time-points (30, 60 and 90 min) following L-DOPA challenge, the above parameters were analyzed based on the most severe of the three scores as well as on the average score of the 3 time points.
The patient took 150% of their normal L-DOPA dose 30 minutes prior to the start of efficacy assessments (UDysRS) at Day 1 (Visit 2), Day 28 (Visit 6) and Day 42 (Visit 7).
The UDysRS is a rating instrument designed to assess the core features of dyskinesia in Parkinson's Disease. The UDysRS consists of 4 parts: • r. Part I, historical disability with regard to the patient's perceptions of the impact on activities of ADL of on-dyskinesia. • s. Part II, historical disability with regard to the patient's perceptions of the impact on ADL of off-dystonia. • t. Part III, objective impairment, which assesses severity of dyskinesia, affected body parts, and type of impairment (choreic vs. dystonic). • u. Part IV, objective disability, based on an evaluation of Part III activities.
Each item in the UDysRS is scored from 0 to 4, with a possible maximum total score of 104.
The UDysRS assessment would be performed at baseline (Day 1, Visit 2), Day 28 and Day 42 (Visits 6 and 7) starting approximately 30 minutes after the L-DOPA challenge on these days.
The data for all 3 assessments performed at each visit would be entered in the eCRF and the Investigator will highlight which of the assessments, corresponding to the assessment where the patient had most severe dyskinesia, that would be used in the descriptive summaries of data.
Change from baseline in the UDysRS total score to Visit 6 (Day 28) and Visit 7 (Day 42) respectively would be summarized using descriptive statistics. […] The same analysis would be done for UDysRS total objective score Part III and IV only.
The baseline value of the dependent variable has been included in the model as a continuous covariate.

## Cc1ccc(CNCC2(F)CCN(C(=O)c3ccc(F)c(Cl)c3)CC2)nc1 [NLX-112, (3-chloro-4-fluoro-phenyl)-[4-fluoro-4-{[(5-methyl-pyridin-2-ylmethyl)-amino]-methyl}piperidin-1-yl]methanone]
Visit 2 Baseline
  UDysRS Parts 3 and 4 average, collected value, median: 13.00
  UDysRS Parts 3 and 4 most severe, collected value, mean: 15.5
  UDysRS Parts 3 and 4 most severe, collected value, median: 14.0
[1]
  UDysRS Parts 1, 2, 3, and 4 average, absolute change from baseline, mean: −4.82
  UDysRS Parts 1, 2, 3, and 4 average, absolute change from baseline, median: −3.00
  UDysRS Parts 1, 2, 3, and 4 average, collected value, mean: 25.33
  UDysRS Parts 1, 2, 3, and 4 average, collected value, median: 25.33
  UDysRS Parts 1, 2, 3, and 4 average, relative change from baseline (%), mean: −9.33%
  UDysRS Parts 1, 2, 3, and 4 average, relative change from baseline (%), median: −10.6%
  UDysRS Parts 1, 2, 3, and 4 most severe, absolute change from baseline, mean: −4.1
  UDysRS Parts 1, 2, 3, and 4 most severe, absolute change from baseline, median: −2.0
  UDysRS Parts 1, 2, 3, and 4 most severe, collected value, mean: 27.5
  UDysRS Parts 1, 2, 3, and 4 most severe, collected value, median: 28.0
  UDysRS Parts 1, 2, 3, and 4 most severe, relative change from baseline (%), mean: −10.2%
  UDysRS Parts 1, 2, 3, and 4 most severe, relative change from baseline (%), median: −6.45%
  UDysRS Parts 3 and 4 average, absolute change from baseline, mean: −2.49
  UDysRS Parts 3 and 4 average, absolute change from baseline, median: −1.67
  UDysRS Parts 3 and 4 average, collected value, mean: 11.60
  UDysRS Parts 3 and 4 average, collected value, median: 10.33
  UDysRS Parts 3 and 4 average, relative change from baseline (%), mean: −17.3%
  UDysRS Parts 3 and 4 average, relative change from baseline (%), median: −20.0%
  UDysRS Parts 3 and 4 most severe, absolute change from baseline, mean: −1.7
  UDysRS Parts 3 and 4 most severe, absolute change from baseline, median: −1.0
  UDysRS Parts 3 and 4 most severe, collected value, mean: 13.8
  UDysRS Parts 3 and 4 most severe, collected value, median: 12.0
  UDysRS Parts 3 and 4 most severe, relative change from baseline (%), mean: −15.8%
  UDysRS Parts 3 and 4 most severe, relative change from baseline (%), median: −8.33%
[2]
  UDysRS Parts 1, 2, 3, and 4 average, absolute change from baseline, mean: −6.51
  UDysRS Parts 1, 2, 3, and 4 average, absolute change from baseline, median: −7.67
  UDysRS Parts 1, 2, 3, and 4 average, collected value, mean: 23.64
  UDysRS Parts 1, 2, 3, and 4 average, collected value, median: 23.00
  UDysRS Parts 1, 2, 3, and 4 average, relative change from baseline (%), mean: −19.5%
  UDysRS Parts 1, 2, 3, and 4 average, relative change from baseline (%), median: −21.9%
  UDysRS Parts 1, 2, 3, and 4 most severe, absolute change from baseline, mean: −6.3
  UDysRS Parts 1, 2, 3, and 4 most severe, absolute change from baseline, median: −8.0
  UDysRS Parts 1, 2, 3, and 4 most severe, collected value, mean: 25.3
  UDysRS Parts 1, 2, 3, and 4 most severe, collected value, median: 24.0
  UDysRS Parts 1, 2, 3, and 4 most severe, relative change from baseline (%), mean: −19.0%
  UDysRS Parts 1, 2, 3, and 4 most severe, relative change from baseline (%), median: −25.8%
  UDysRS Parts 3 and 4 average, absolute change from baseline, mean: −3.31
  UDysRS Parts 3 and 4 average, absolute change from baseline, median: −3.33
  UDysRS Parts 3 and 4 average, collected value, mean: 10.78
  UDysRS Parts 3 and 4 average, collected value, median: 9.67
  UDysRS Parts 3 and 4 average, relative change from baseline (%), mean: −25.3%
  UDysRS Parts 3 and 4 average, relative change from baseline (%), median: −31.5%
  UDysRS Parts 3 and 4 most severe, absolute change from baseline, mean: −3.1
  UDysRS Parts 3 and 4 most severe, absolute change from baseline, median: −4.0
  UDysRS Parts 3 and 4 most severe, collected value, mean: 12.4
  UDysRS Parts 3 and 4 most severe, collected value, median: 11.0
  UDysRS Parts 3 and 4 most severe, relative change from baseline (%), mean: −21.0%
  UDysRS Parts 3 and 4 most severe, relative change from baseline (%), median: −31.6%
Day 28 and day 42
  UDysRS sum of Part 3 items, average of all 3 assessments, NLX-112 vs placebo: significantly greater change from baseline
Day 42
  net reduction in UDysRS total score, more than placebo: 3.9 points
[3]
  UDysRS sum of Part 3 items, most severe assessment, vs baseline: significant reduction
  UDysRS total score based on the average of 3 assessments, vs baseline: significant reduction
[4]
  UDysRS Part 3 + 4, Δ from baseline: +3 and +2 and −11 and −6 (2×)
  UDysRS Total, Δ from baseline: −2 and +7 and −11 and −8 and −6
Of the 5 amantadine-using patients on NLX-112
  amantadine-using patients with numerical reductions in UDysRS total score and total objective score: 3
[5]
  UDysRS Part 3 sum of items, average of assessment sessions, mean: 21.5
  UDysRS Part 3 sum of items, highest score of assessment sessions, mean: 24.7
  UDysRS Parts 3 + 4, average of assessment sessions, mean: 14.1
  UDysRS Parts 3 + 4, highest score of assessment sessions, mean: 15.5
  UDysRS Total (Parts 1 to 4), average of assessment sessions, mean: 30.1
  UDysRS Total (Parts 1 to 4), highest score of assessment sessions, mean: 31.6
Δ D 28 (end of up-titration)
  UDysRS Parts 3 + 4, highest score of assessment sessions, mean change from baseline: −1.7
Δ D 28 (end of up-titration), p < 0.001 vs baseline
  UDysRS Part 3 sum of items, average of assessment sessions, mean change from baseline: −5.5
[6]
  UDysRS Part 3 sum of items, highest score of assessment sessions, mean change from baseline: −5.5
  UDysRS Parts 3 + 4, average of assessment sessions, mean change from baseline: −2.5
  UDysRS Total (Parts 1 to 4), average of assessment sessions, mean change from baseline: −4.8
Δ D 28 (end of up-titration), p < 0.05 vs baseline
  UDysRS Total (Parts 1 to 4), highest score of assessment sessions, mean change from baseline: −4.1
Δ D 42 (end of stable dosing), p < 0.0001 vs baseline
  UDysRS Part 3 sum of items, average of assessment sessions, mean change from baseline: −7.1
[7]
  UDysRS Part 3 sum of items, highest score of assessment sessions, mean change from baseline: −7.8
  UDysRS Parts 3 + 4, average of assessment sessions, mean change from baseline: −3.3
  UDysRS Total (Parts 1 to 4), average of assessment sessions, mean change from baseline: −6.5
[8]
  UDysRS Parts 3 + 4, highest score of assessment sessions, mean change from baseline: −3.1
  UDysRS Total (Parts 1 to 4), highest score of assessment sessions, mean change from baseline: −6.3
